Measured values reported in patent US20080261929A1, “COMBINATION OF PROGESTERONE-RECEPTOR ANTAGONIST TOGETHER WITH AN AROMATASE INHIBITOR FOR USE IN BRCA MEDIATED DISEASES” (priority 2007, published 2008).
Where two headings read alike, the source gives them in different places.

How the values were obtained:
[1] = administered orally; cited from earlier work
mammary tumors = conditions: mice with rodent BRCA1- or BRCA2 inactivated in mammary glands; Poole et al., Science 2006; cited from earlier work
progesterone receptor [2] = target: T1, progesterone receptor (Homo sapiens, UniProt P06401); assay: Progesterone receptor protein expression/stability after siRNA knock down of BRCA1 (Example 1); format: cell-based
T1 sequence (P06401 1-933): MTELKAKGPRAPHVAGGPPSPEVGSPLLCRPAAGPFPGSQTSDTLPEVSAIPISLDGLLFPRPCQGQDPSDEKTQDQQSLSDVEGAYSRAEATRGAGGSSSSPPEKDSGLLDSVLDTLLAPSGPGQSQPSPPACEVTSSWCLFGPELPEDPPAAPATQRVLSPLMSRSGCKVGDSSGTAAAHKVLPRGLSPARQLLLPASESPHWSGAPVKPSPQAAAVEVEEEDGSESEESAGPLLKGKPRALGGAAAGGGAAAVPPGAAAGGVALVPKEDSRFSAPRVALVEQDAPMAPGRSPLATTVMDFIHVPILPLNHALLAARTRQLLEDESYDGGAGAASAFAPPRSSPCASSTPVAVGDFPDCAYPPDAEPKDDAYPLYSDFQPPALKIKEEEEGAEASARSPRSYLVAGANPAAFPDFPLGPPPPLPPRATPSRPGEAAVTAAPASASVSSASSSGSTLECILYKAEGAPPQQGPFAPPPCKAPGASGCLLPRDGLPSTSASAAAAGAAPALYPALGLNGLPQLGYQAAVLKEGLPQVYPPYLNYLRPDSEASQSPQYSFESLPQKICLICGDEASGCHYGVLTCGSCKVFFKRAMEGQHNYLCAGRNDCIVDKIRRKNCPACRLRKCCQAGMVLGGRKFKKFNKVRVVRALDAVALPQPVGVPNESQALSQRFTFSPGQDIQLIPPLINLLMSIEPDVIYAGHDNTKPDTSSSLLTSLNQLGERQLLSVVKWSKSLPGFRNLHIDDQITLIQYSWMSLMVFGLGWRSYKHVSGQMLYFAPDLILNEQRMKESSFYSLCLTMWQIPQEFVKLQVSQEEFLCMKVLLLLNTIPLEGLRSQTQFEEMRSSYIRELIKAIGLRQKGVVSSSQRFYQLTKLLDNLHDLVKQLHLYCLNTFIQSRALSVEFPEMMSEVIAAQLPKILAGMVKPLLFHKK
Procedure: MCF-7 and T47D mammary cells were stabely transfected with the aromatse gene. These cells grow with androstenedione stimulus. These cells were treated with siRNA knocking down the BRCA1 and BRCA2 gene.
In a second step cells were stimulated either with progesterone and/or with androstenedione. […] The effects on progesterone receptor protein expression were further investigated.

progesterone receptor [3] = target: T1, progesterone receptor; assay: Progesterone receptor protein expression/stability after knock down of BRCA1 (Example 3)
Excerpt: MCF-7 and T47D mammary cells stabely transfected with the aromatse gene. These cells grow with androstenedione stimulus in vivo. These cells were stabely transfected with shRNA knocking down the BRCA1 and BRCA2 gene. Cell growth in vivo in comparison to untransfected and mock transfected cells was compared. In a second step cells were implanted in immunodeficient nude mice and stimulated either with progesterone and/or with androstenedione. […] The effects on progesterone receptor protein expression were further investigated.

progesterone receptor [4] = target: T1, progesterone receptor; conditions: cited from earlier work
tumor cells = assay: Apoptosis of tumor cells

Effect on increased stability of progesterone receptor after BRCA1 knock down (progesterone receptor [2]) | Effect on increased stability of progesterone receptor after BRCA1 knock down (progesterone receptor [3]) | Compound | Bioavailability [1] | Development of mammary tumors (mammary tumors) | Antiprogestagenic activity (progesterone receptor [4]; Fuhrmann et al., J. Med. Chem. 2000) | Other endocrinological (side) effects, e.g. androgen, estrogen or antiglucocorticoid activity (progesterone receptor [4]) | Other endocrinological (side) effects, e.g. androgen, estrogen or antiglucocorticoid activity (progesterone receptor [4]; listed as ZK230211) | Apoptosis of tumor cells (tumor cells)
 |  | CC#C[C@]1(O)CC[C@H]2[C@@H]3CCC4=CC(=O)CCC4=C3[C@@H](c3ccc(N(C)C)cc3)C[C@@]21C [mifepristone] | poor bioavailability | blocks the development of mammary tumors |  |  |  | 
could be antagonized | could be antagonized | CC(=O)c1ccc([C@H]2C[C@@]3(C)[C@@H](CC[C@@]3(O)C(F)(F)C(F)(F)F)[C@@H]3CCC4=CC(=O)CCC4=C32)cc1 [11β-(4-acetylphenyl)-17β-hydroxy-17α-(1,1,2,2,2-pentafluoroethyl)-estra-4,9-dien-3-one] |  |  | high antiprogestagenic activity | only very weak or no endocrine side effects | little or no other endocrinological effects | increased apoptosis of tumor cells
